Results from ChEMBL document CHEMBL1201862, “PubChem BioAssay data set” (2004).
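48-hour exposure; five concentrations; linearly interpolated endpoints. GI50 is the concentration that inhibits growth by half.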 Calls of active or inactive are those of the source. No stated cut-off is given here; in the data, active = GI50 up to about 1.1 µM and inactive = higher.

Key:
Assay in all cases: NCI anticancer screen, dose series, 48 h
[1] = system: BT-549
[2] = system: M14
[3] = system: HCC 2998
[4] = system: SR
[5] = system: TK-10
[6] = system: UACC-62
[7] = system: SK-MEL-5
[8] = system: HOP-62
[9] = system: MDA-MB-435
[10] = system: IGROV-1
[11] = system: MCF7
[12] = system: PC-3
[13] = system: RXF 393
[14] = system: MOLT-4
[15] = system: SF-268
[16] = system: HT-29
[17] = system: COLO 205
[18] = system: LOX IMVI
[19] = system: EKVX
[20] = system: SK-MEL-2
[21] = system: CAKI-1
[22] = system: SK-OV-3
[23] = system: NCI-H522
[24] = system: ACHN
[25] = system: SW-620
[26] = system: SF-295
[27] = system: A549
[28] = system: Hs-578T
[29] = system: MDA-MB-231
[30] = system: Malme-3M
[31] = system: HCT-116
[32] = system: 786-0
[33] = system: HL-60
[34] = system: HOP-92
[35] = system: OVCAR-4
[36] = system: OVCAR-5
[37] = system: SF-539
[38] = system: SNB-75
[39] = system: CCRF-CEM
[40] = system: OVCAR-3
[41] = system: UACC-257
[42] = system: T47D
[43] = system: SK-MEL-28
[44] = system: SN12C
[45] = system: OVCAR-8
[46] = system: DU-145
[47] = system: SNB-19
[48] = system: UO-31
[49] = system: K562
[50] = system: U-251
[51] = system: NCI-H460
[52] = system: NCI-H226
[53] = system: NCI/ADR-RES
[54] = system: MDA-N
[55] = system: KM12
[56] = system: HCT-15
[57] = system: RPMI-8226
[58] = system: NCI-H23

SMILES: CCCCCCCCCCCCOCCCCCCCCC/C=C/c1ccc2c(c1)OCCOCCOCCOCCO2
- GI50 [1]: 23.4 µM (inactive)
- GI50 [2]: 25.4 µM (inactive)
- GI50 [3]: 17.9 µM (inactive)
- GI50 [4]: 21 µM (inactive)
- GI50 [5]: 19.6 µM (inactive)
- GI50 [6]: 15.1 µM (inactive)
- GI50 [7]: 15.5 µM (inactive)
- GI50 [8]: 28 µM (inactive)
- GI50 [9]: 18.3 µM (inactive)
- GI50 [10]: 21.3 µM (inactive)
- GI50 [11]: 16.3 µM (inactive)
- GI50 [12]: 17.9 µM (inactive)
- GI50 [13]: 19.2 µM (inactive)
- GI50 [14]: 28.7 µM (inactive)
- GI50 [15]: 22.8 µM (inactive)
- GI50 [16]: 20.7 µM (inactive)
- GI50 [17]: 18.9 µM (inactive)
- GI50 [18]: 19.3 µM (inactive)
- GI50 [19]: 26.6 µM (inactive)
- GI50 [20]: 15.8 µM (inactive)
- GI50 [21]: 17.3 µM (inactive)
- GI50 [22]: 17.5 µM (inactive)
- GI50 [23]: 13.2 µM (inactive)
- GI50 [24]: 19.1 µM (inactive)
- GI50 [25]: 30.3 µM (inactive)
- GI50 [26]: 16.3 µM (inactive)
- GI50 [27]: 17.6 µM (inactive)
- GI50 [28]: 16.4 µM (inactive)
- GI50 [29]: 17.1 µM (inactive)
- GI50 [30]: 24.6 µM (inactive)
- GI50 [31]: 16 µM (inactive)
- GI50 [32]: 13.6 µM (inactive)
- GI50 [33]: 28.8 µM (inactive)
- GI50 [34]: 12.2 µM (inactive)
- GI50 [35]: 19.3 µM (inactive)
- GI50 [36]: 31 µM (inactive)
- GI50 [37]: 17.4 µM (inactive)
- GI50 [38]: 16.4 µM (inactive)
- GI50 [39]: 39.5 µM (inactive)
- GI50 [40]: 21.1 µM (inactive)
- GI50 [41]: 27 µM (inactive)
- GI50 [42]: 24.9 µM (inactive)
- GI50 [43]: 30.7 µM (inactive)
- GI50 [44]: 23.6 µM (inactive)
- GI50 [45]: 12.7 µM (inactive)
- GI50 [46]: 33 µM (inactive)
- GI50 [47]: 33.3 µM (inactive)
- GI50 [48]: 19.1 µM (inactive)
- GI50 [49]: 31.3 µM (inactive)
- GI50 [50]: 22.8 µM (inactive)
- GI50 [51]: 18.4 µM (inactive)
- GI50 [52]: 17.8 µM (inactive)
- GI50 [53]: 17.5 µM (inactive)
- GI50 [54]: 18.5 µM (inactive)
- GI50 [55]: 16.8 µM (inactive)
- GI50 [56]: 45.9 µM
- GI50 [57]: 17.7 µM (inactive)
- GI50 [58]: 15.6 µM (inactive)
